Consider 23 molecules from patent publication US12378224B2 (Dong-A Socio Holdings Co., Ltd., priority 2016, dated 2025).

pIC50: −log10 of the molar value.

Assay [1] concerns the target BCR fusion to kinase domain of MerTK (Ba/F3-MerTK) (Homo sapiens, UniProt Q12866). Put plainly: In Cell TAM Kinase Assay Using BaF3 Cellular System. The format is cell-based, murine. Conditions: Ba/F3 BCR-kinase fusion proliferation, 72 hours, Cell Titer Glo; kinase not given; read-out: IC50. An outline of the steps: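 Ba/F3 murine pro-B cells expressing BCR–MerTK kinase-domain fusion (IL-3 independent), seeded at 1,000 cells/well onto compound and grown 72 h. Viability read by CellTiter-Glo 2.0 luminescence after 30 min at room temperature.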
A general note: In ATP-based viability assays light output follows the ATP content of the culture.

A further assay addresses human MER (528-end) (Homo sapiens (Human), UniProt Q12866). Briefly: HTRF Kinase Activity Biochemical Assay (KinEASE-TK). Conditions: 10 uM ATP. An outline of the steps: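 Recombinant human MER (528-end) phosphorylated biotin-TK peptide substrate, 1 h at room temperature. Reaction stopped with detection buffer containing 0.375 nM Eu3+-cryptate anti-TK antibody and 0.062 uM streptavidin-XL665, 1 h further. Activity taken as HTRF ratio 665/620 nm ×10,000, 340 nm excitation.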

human MER (528-end), sequence (Q12866 528-999 limits assumed): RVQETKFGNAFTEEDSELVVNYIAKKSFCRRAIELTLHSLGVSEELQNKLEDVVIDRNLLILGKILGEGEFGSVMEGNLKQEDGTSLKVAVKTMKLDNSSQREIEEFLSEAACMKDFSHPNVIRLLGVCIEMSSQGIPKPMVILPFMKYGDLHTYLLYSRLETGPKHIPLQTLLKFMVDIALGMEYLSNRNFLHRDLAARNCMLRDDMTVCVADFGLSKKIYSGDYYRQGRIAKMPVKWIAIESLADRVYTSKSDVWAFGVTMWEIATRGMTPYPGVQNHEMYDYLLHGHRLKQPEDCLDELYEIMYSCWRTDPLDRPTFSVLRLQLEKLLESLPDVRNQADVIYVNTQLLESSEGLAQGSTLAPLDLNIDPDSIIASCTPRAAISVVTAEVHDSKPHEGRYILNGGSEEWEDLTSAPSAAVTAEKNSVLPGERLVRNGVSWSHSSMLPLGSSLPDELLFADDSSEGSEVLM
BCR fusion to kinase domain of MerTK (Ba/F3-MerTK), sequence (Q12866 21-999 limits assumed, change not shown): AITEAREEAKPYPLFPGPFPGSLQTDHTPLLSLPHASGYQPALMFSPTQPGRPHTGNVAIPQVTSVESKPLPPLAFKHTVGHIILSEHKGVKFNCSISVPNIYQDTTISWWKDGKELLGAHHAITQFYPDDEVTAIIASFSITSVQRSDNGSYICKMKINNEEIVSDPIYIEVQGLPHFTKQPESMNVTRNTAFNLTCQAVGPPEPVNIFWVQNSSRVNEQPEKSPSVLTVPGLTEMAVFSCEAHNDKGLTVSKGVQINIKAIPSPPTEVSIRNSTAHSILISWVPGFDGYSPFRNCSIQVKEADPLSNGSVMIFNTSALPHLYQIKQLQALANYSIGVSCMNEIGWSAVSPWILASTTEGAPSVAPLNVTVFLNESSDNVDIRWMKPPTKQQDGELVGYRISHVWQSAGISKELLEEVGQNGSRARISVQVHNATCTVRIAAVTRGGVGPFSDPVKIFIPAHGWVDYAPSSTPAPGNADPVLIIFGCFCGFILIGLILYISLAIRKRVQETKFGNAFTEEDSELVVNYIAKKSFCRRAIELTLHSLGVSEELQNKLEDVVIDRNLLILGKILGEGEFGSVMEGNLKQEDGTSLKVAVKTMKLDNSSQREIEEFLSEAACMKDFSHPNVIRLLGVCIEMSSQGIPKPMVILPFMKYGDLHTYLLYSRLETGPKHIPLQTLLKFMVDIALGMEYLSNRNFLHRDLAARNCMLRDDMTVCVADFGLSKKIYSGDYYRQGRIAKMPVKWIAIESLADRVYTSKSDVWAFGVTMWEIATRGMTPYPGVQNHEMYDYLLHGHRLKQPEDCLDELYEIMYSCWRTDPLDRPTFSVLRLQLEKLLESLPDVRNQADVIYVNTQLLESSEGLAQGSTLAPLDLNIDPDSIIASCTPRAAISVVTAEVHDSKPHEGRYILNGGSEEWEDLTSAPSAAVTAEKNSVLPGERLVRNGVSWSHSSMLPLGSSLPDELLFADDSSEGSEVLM

Broadly, the pIC50 is the negative decadic logarithm of the IC50, by convention in mol/L. As for `CN(c1ccc(-c2ccc(C(=O)N3CC[C@@H](NC(=O)c4cc(-c5cnn(C)c5)cnc4N)C3)cc2)cc1)c1ccc([N+](=O)[O-])cc1` [Example 803, (R)-2-amino-N-(1-(4′-(methyl(4-nitrophenyl)amino)-[1,1′-biphenyl]-4-carbonyl)pyrrolidin-3-yl)-5-(1-methyl-1H-pyrazol-4-yl)nicotinamide], the pIC50 in assay [1] was less than 6.00; against human MER (528-end) it was 6.00 to 7.00.
On to `CN(c1ccc(-c2ccc(C(=O)N3CC[C@@H](NC(=O)c4cc(-c5cnn(C)c5)cnc4N)C3)cc2)cc1)c1ccc([N+](=O)[O-])cc1F` [Example 804, (R)-2-amino-N-(1-(4′-((2-fluoro-4-nitrophenyl)(methyl)amino)-[1,1′-biphenyl]-4-carbonyl)pyrrolidin-3-yl)-5-(1-methyl-1H-pyrazol-4-yl)nicotinamide], for which the negative logarithm of the IC50 (pIC50) in assay [1] is less than 6.00; at human MER (528-end), 6.00 to 7.00.
For `CN(c1ccc(-c2ccc(C(=O)N3CC[C@@H](NC(=O)c4cc(-c5cnn(C)c5)cnc4N)C3)cc2)cc1)c1ccc([N+](=O)[O-])cc1Cl` [Example 806, (R)-2-amino-N-(1-(4′-((2-chloro-4-nitrophenyl)(methyl)amino)-[1,1′-biphenyl]-4-carbonyl)pyrrolidin-3-yl)-5-(1-methyl-1H-pyrazol-4-yl)nicotinamide], the pIC50 (in assay [1]; at human MER (528-end)) was less than 6.00 throughout.
For `Cn1cc(-c2cnc(N)c(C(=O)N[C@@H]3CCN(C(=O)c4ccc(-c5ccc(Oc6ccc(O)cc6)c(Cl)c5)cc4)C3)c2)cn1` [Example 808, (R)-2-amino-N-(1-(3′-chloro-4′-(4-hydroxyphenoxy)-[1,1′-biphenyl]-4-carbonyl)pyrrolidin-3-yl)-5-(1-methyl-1H-pyrazol-4-yl)nicotinamide], the pIC50 in assay [1] was 6.30 to 7.00; on human MER (528-end), 7.00 to 8.00.
On to `CN1CCC(Oc2ccc(-c3ccc(C(=O)N4CC[C@@H](NC(=O)c5cc(-c6cnn(C)c6)cnc5N)C4)cc3)cc2)CC1` [Example 809, (R)-2-amino-5-(1-methyl-1H-pyrazol-4-yl)-N-(1-(4′-((1-methylpiperidin-4-yl)oxy)-[1,1′-biphenyl]-4-carbonyl)pyrrolidin-3-yl)nicotinamide], for which the pIC50 is less than 6.00 in assay [1] and 7.00 to 8.00 against human MER (528-end).
Consider `Cn1cc(-c2cnc(N)c(C(=O)N[C@@H]3CCN(C(=O)c4ccc(-c5ccc(Oc6ccc(C=O)cc6)cc5)cc4)C3)c2)cn1` [Example 811, (R)-2-amino-N-(1-(4′-(4-formylphenoxy)-[1,1′-biphenyl]-4-carbonyl)pyrrolidin-3-yl)-5-(1-methyl-1H-pyrazol-4-yl)nicotinamide], for which the pIC50 in assay [1] is less than 6.00; against human MER (528-end), 7.00 to 8.00.
Regarding `Cn1cc(-c2cnc(N)c(C(=O)N[C@@H]3CCN(C(=O)c4ccc(-c5ccc(Oc6ccc(C(=O)O)cc6)cc5)cc4)C3)c2)cn1` [Example 812, (R)-4-((4′-(3-(2-amino-5-(1-methyl-1H-pyrazol-4-yl)nicotinamido)pyrrolidine-1-carbonyl)-[1,1′-biphenyl]-4-yl)oxy)benzoic acid], the pIC50 in assay [1] was less than 6.00; against human MER (528-end) it was 7.00 to 8.00.
Take `Cn1cc(-c2cnc(N)c(C(=O)N[C@@H]3CCN(C(=O)c4ccc5cc(NC6CCNCC6)ccc5c4)C3)c2)cn1` [Example 816, (R)-2-amino-5-(1-methyl-1H-pyrazol-4-yl)-N-(1-(6-(piperidin-4-ylamino)-2-naphthoyl)pyrrolidin-3-yl)nicotinamide]: the pIC50 is less than 6.00 in assay [1] and 6.00 to 7.00 at human MER (528-end).
As to `Cn1cc(-c2cnc(N)c(C(=O)N[C@@H]3CCN(C(=O)c4ccc5cc(NC6CCN(CCO)CC6)ccc5c4)C3)c2)cn1` [Example 817, (R)-2-amino-N-(1-(6-((1-(2-hydroxyethyl)piperidin-4-yl)amino)-2-naphthoyl)pyrrolidin-3-yl)-5-(1-methyl-1H-pyrazol-4-yl)nicotinamide], the pIC50 in assay [1] is less than 6.00; at human MER (528-end) it was 6.00 to 7.00.
In the case of `CN(c1ccc2cc(C(=O)N3CC[C@@H](NC(=O)c4cc(-c5cnn(C)c5)cnc4N)C3)ccc2c1)C1CCNCC1` [Example 818, (R)-2-amino-N-(1-(6-(methyl(piperidin-4-yl)amino)-2-naphthoyl)pyrrolidin-3-yl)-5-(1-methyl-1H-pyrazol-4-yl)nicotinamide], the pIC50 is less than 6.00 in assay [1] and 7.00 to 8.00 against human MER (528-end).
For `Cn1cc(-c2cnc(N)c(C(=O)N[C@@H]3CCN(C(=O)c4ccc(-c5ccc(CC6CCN(CCO)CC6)cc5)cc4)C3)c2)cn1` [Example 819, (R)-2-amino-N-(1-(4′-((1-(2-hydroxyethyl)piperidin-4-yl)methyl)-[1,1′-biphenyl]-4-carbonyl)pyrrolidin-3-yl)-5-(1-methyl-1H-pyrazol-4-yl)nicotinamide], the figures for the pIC50 (in assay [1]; against human MER (528-end)) were less than 6.00 and 7.00 to 8.00, respectively.
As for `CN(c1ccc2cc(C(=O)N3CC[C@@H](NC(=O)c4cc(-c5cnn(C)c5)cnc4N)C3)ccc2c1)C1CCN(CCO)CC1` [Example 820, (R)-2-amino-N-(1-(6-((1-(2-hydroxyethyl)piperidin-4-yl)(methyl)amino)-2-naphthoyl)pyrrolidin-3-yl)-5-(1-methyl-1H-pyrazol-4-yl)nicotinamide], the pIC50 is 6.30 to 7.00 in assay [1] and 7.00 to 8.00 at human MER (528-end).
With `CC(/C=C/c1ccc(C(=O)N2CC[C@@H](NC(=O)c3cc(-c4cnn(C)c4)cnc3N)C2)cc1)N1CCN(CCO)CC1` (stereo partly drawn) [Example 823, 2-amino-N-((3R)-1-(4-((E)-3-(4-(2-hydroxyethyl)piperazin-1-yl)but-1-en-1-yl)benzoyl)pyrrolidin-3-yl)-5-(1-methyl-1H-pyrazol-4-yl)nicotinamide], the pIC50 is less than 6.00 in assay [1] and 7.00 to 8.00 on human MER (528-end).
For `Cn1cc(-c2cnc(N)c(C(=O)N[C@@H]3CCN(C(=O)c4ccc(Oc5cccc([N+](=O)[O-])c5)cc4)C3)c2)cn1` [Example 829, (R)-2-amino-5-(1-methyl-1H-pyrazol-4-yl)-N-(1-(4-(3-nitrophenoxy)benzoyl)pyrrolidin-3-yl)nicotinamide] the same measures were less than 6.00 and less than 6.00.
Turning to `Cn1cc(-c2cnc(N)c(C(=O)N[C@@H]3CCN(C(=O)c4ccc(Oc5cccc(N)c5)cc4)C3)c2)cn1` [Example 830, (R)-2-amino-N-(1-(4-(3-aminophenoxy)benzoyl)pyrrolidin-3-yl)-5-(1-methyl-1H-pyrazol-4-yl)nicotinamide], the results for the pIC50 (in assay [1]; at human MER (528-end)) were less than 6.00 and 6.00 to 7.00, respectively.
For the molecule `Cn1cc(-c2cnc(N)c(C(=O)N[C@@H]3CCN(C(=O)c4ccc(Oc5ccc([N+](=O)[O-])cc5)cc4)C3)c2)cn1` [Example 831, (R)-2-amino-5-(1-methyl-1H-pyrazol-4-yl)-N-(1-(4-(4-nitrophenoxy)benzoyl)pyrrolidin-3-yl)nicotinamide], the values for the pIC50 (in assay [1]; against human MER (528-end)) were less than 6.00 and 6.00 to 7.00, respectively.
Taken in the same sequence, the figures for `Cn1cc(-c2cnc(N)c(C(=O)N[C@@H]3CCN(C(=O)c4ccc(Oc5ccc(N)cc5)cc4)C3)c2)cn1` [Example 832, (R)-2-amino-N-(1-(4-(4-aminophenoxy)benzoyl)pyrrolidin-3-yl)-5-(1-methyl-1H-pyrazol-4-yl)nicotinamide] were less than 6.00 and less than 6.00.
For the molecule `CN(c1ccc(-c2ccc(C(=O)N3CC[C@@H](NC(=O)c4cc(-c5cnn(C)c5)cnc4N)C3)cc2)cc1)c1ccc(N)cc1F` [Example 835, (R)-2-amino-N-(1-(4′-((4-amino-2-fluorophenyl)(methyl)amino)-[1,1′-biphenyl]-4-carbonyl)pyrrolidin-3-yl)-5-(1-methyl-1H-pyrazol-4-yl)nicotinamide], the pIC50 in assay [1] is less than 6.00; against human MER (528-end), 6.00 to 7.00.
In the case of `Cc1cc(N)ccc1N(C)c1ccc(-c2ccc(C(=O)N3CC[C@@H](NC(=O)c4cc(-c5cnn(C)c5)cnc4N)C3)cc2)cc1` [Example 836, (R)-2-amino-N-(1-(4′-((4-amino-2-methylphenyl)(methyl)amino)-[1,1′-biphenyl]-4-carbonyl)pyrrolidin-3-yl)-5-(1-methyl-1H-pyrazol-4-yl)nicotinamide], the pIC50 in assay [1] is less than 6.00; on human MER (528-end) it was 6.00 to 7.00.
For `CN(c1ccc(-c2ccc(C(=O)N3CC[C@@H](NC(=O)c4cc(-c5cnn(C)c5)cnc4N)C3)cc2)cc1)c1ccc(N)cc1Cl` [Example 837, (R)-2-amino-N-(1-(4′-((4-amino-2-chlorophenyl)(methyl)amino)-[1,1′-biphenyl]-4-carbonyl)pyrrolidin-3-yl)-5-(1-methyl-1H-pyrazol-4-yl)nicotinamide], the pIC50 in assay [1] was less than 6.00; against human MER (528-end), 6.00 to 7.00.
Taken in the same sequence, the figures for `Cn1cc(-c2cnc(N)c(C(=O)N[C@@H]3CCN(C(=O)c4ccc(OCc5cccc(N)c5)cc4)C3)c2)cn1` [Example 838, (R)-2-amino-N-(1-(4-((3-aminobenzyl)oxy)benzoyl)pyrrolidin-3-yl)-5-(1-methyl-1H-pyrazol-4-yl)nicotinamide] were less than 6.00 and 6.00 to 7.00.
Regarding “(R)-2-amino-N-(1-(2′-chloro-4′-fluoro-[1,1′-biphenyl]-4-carbonyl)pyrrolidin-3-yl)-5-(2-(piperidin-4-ylmethoxy)phenyl)nicotinamide [Example 771]”, the pIC50 in assay [1] is less than 6.00; at human MER (528-end) it was 6.00 to 7.00.
In the case of “(R)-2-amino-N-(1-(4′-(4-hydroxyphenoxy)-[1,1′-biphenyl]-4-carbonyl)pyrrolidin-3-yl)-5-(1-methyl-1H-pyrazol-4-yl)nicotinamide [Example 800]”, the negative logarithm of the IC50 (pIC50) in assay [1] was less than 6.00; against human MER (528-end), 7.00 to 8.00.
